How the values were obtained:
[1] = system: non-small cell lung cancer; assay: dose-escalation trial in non-small cell lung cancer; format: in vivo; details: human NSCLC; local irradiation 5×4 Gy then EMD521873 at a dose level below the MTD
Procedure: An dose-escalation trial is performed using EMD521873 in combination with local irradiation (20 Gy) of primary tumors or metastases in subjects with non-small cell lung cancer stage IIIb with malignant pleural effusion or stage IV with disease control (partial response or stable disease) after application of 4 cycles of platinum-based, first-line chemotherapy.
Subjects receive local irradiation (5×4 Gy) given over 5 consecutive days, prior to the first treatment cycle with EMD521873. After a 2-day treatment-free interval, intravenous infusions of EMD521873 are given on 3 consecutive days in 3-week cycles.
In each cycle, patients receive EMD521873 given as a once-daily, 1-h intravenous infusion on 3 consecutive days (days 1-3) followed by an 18-day treatment-free break (days 4-21).
Dose escalation of EMD521873 is performed in cohorts of 3 subjects at dose levels of 0.15, 0.30, and 0.45 mg/kg. Escalation to the next dose level is based on the number of dose limiting toxicities (DLTs) observed, if any, during the DLT evaluation period (i.e. the 21 days following the day of first infusion of […] in the first cycle). DLTs are defined as any grade ≧3 toxicity assessed as related to trial treatment (EMD521873 and/or radiation). If no DLT occurs in the 3 subjects, the next 3 subjects are recruited at the next highest dose level. […]

[2] = system: Lewis lung carcinoma (LLC); assay: tumor growth assay, Lewis lung carcinoma model; format: in vivo, mice; details: for Complete Response Rate: Sel 5 mg/kg d7, 8, 9, Ch/Rx = cisplatin 4 mg/kg d0 plus 3.6 Gy/d d0-4; for tumor growth / complete regressions: Experiments LLC-1, LLC-2, LLC-4
Procedure: LL/2 (LLC) cells, a murine Lewis lung carcinoma cell line, were maintained in DMEM, supplemented with 10% heat-inactivated fetal bovine serum, L-glutamine, penicillin/streptomycin (Life Technologies, Inc.) at 37° C. and 7% CO2. LLC cells were implanted in female C57BL/6 mice.
For the tumor growth assay, cells growing exponentially in culture were injected as a single cell suspension in 100 μl of PBS intramuscularly into the upper legs of the mice. In experiments using a dual tumor model, cells were also implanted in the flanks of the mice. […] In Experiment LLC-7, tumors were implanted in the flank until established. Mice were treated on days 0 to 9, then, on day 12, tumors were excised using survival surgery. Thereafter, animal survival was monitored. In Experiment LLC-14, tumors were implanted subcutaneously in the flank until established. Mice were treated on days 0 to 6 and day 17, and tumor size was measured twice weekly for the duration of the study.
Tumors were measured with calipers in three dimensions for the duration of the experiment. Tumor volumes were calculated using the equation:
Volume=4/3π(L/2×W/2×H/2) • where L=length, W=width and H=height of the tumor
For local irradiation, mice were anesthetized by intraperitoneal injection of a solution of 2% tribromoethanol/3% xylazine. The amount injected was 0.02 ml/gram of the recipient's weight. Mice were restrained so that only their tumor-bearing leg was exposed to radiation, while the reminder of the mouse was shielded. Tumors were irradiated with ^137Cs gamma radiation at a dose rate of 1 Gy/min using a Gammacell® 40 Exactor (Nordion, Ottawa, ON).
Data from the subcutaneous tumor growth assay are presented in graphic form depicting average and standard deviations (sd) of tumor volumes or weights during and after dosing. Animal weight changes were determined by subtracting the animal weight at each time point from the initial body weight, on day 0, then dividing by the initial body weight and multiplying by 100. Therefore a value of 0 indicates no weight change.
Student's 2-tailed t test or Mann-Whitney Rank Sum test, as appropriate, was performed on the individual tumor volumes or animal weights, to determine significant differences between treatment groups.

[3] = Experiment LLC-6, chemoradiation followed by EMD521873
[4] = LLC-3, EMD521873 with cisplatin plus 1.2 Gy/d
[5] = triple combination of chemoradiation plus EMD521873

## dI-NHS76γ2(h)(FN>AQ)-ala-IL2(D20T) [EMD521873]
[1]
  rates of tumor response (CT or MRI scan): improved rates of tumor response
[2]; Exp LLC-3
  Complete Response Rate: 0/6
[2]; Exp LLC-4
  Complete Response Rate: 1/8
[2]; Exp LLC-5
  Complete Response Rate: 0/6
[2]; [3]
  growth control of the irradiated lesion (leg tumor): good growth control
  growth control of the non-irradiated flank tumor: did not surpass that of EMD521873 alone
[2]; EMD521873 5 mg/kg d7, 8, 9 with radiation 3.6 Gy/d d0-4
  tumor growth: reduced tumor growth compared to any of the single treatments and to the other double treatments
[2]; EMD521873 with radiation
  complete regressions: 3/6
[2]; cisplatin 4 mg/kg d0 added to radiation/EMD521873
  tumor growth: further growth control
[2]; cisplatin added to radiation/EMD521873 (triple combination)
  complete regressions: 5/6
[2]; Experiments LLC-1, LLC-2, 3.6 Gy days 0-4 followed by EMD521873 5 mg/kg i.v. days 7, 8, 9
  complete responses: 3/6
[2]; Experiments LLC-1, LLC-2, EMD521873 monotherapy 5 mg/kg i.v. days 7, 8, 9
  complete responses: No complete responses
[2]; LLC-3, EMD521873 5 mg/kg d7, 8, 9 with cisplatin plus 0.4 Gy/d, vs EMD521873 alone or EMD521873 plus cisplatin
  tumor growth control: did not improve tumor growth control
[2]; [4]
  complete responses: no complete responses
  tumor growth control: improved growth control compared to either therapy alone
[2]; LLC-3, cisplatin plus 3.6 Gy/d in combination with EMD521873
  complete responses: 5/6
[2]; LLC-3, day 19, cisplatin plus 3.6 Gy/d in combination with EMD521873
  T/C: 0.02
[2]; LLC-3, day 19, single-arm groups: cisplatin plus 3.6 Gy/d without EMD521873, or EMD521873 alone
  T/C: 0.69
[2]; LLC-3, single-arm groups: cisplatin plus 3.6 Gy/d without EMD521873, or EMD521873 alone
  complete responses: 0/6
[2]; LLC-8, LLC-9, combination with chemoradiation
  animals with complete response: 4/6
[2]; LLC-8, LLC-9, day 21, combination with chemoradiation (cisplatin 4 mg/kg d0 plus 3.6 Gy/d d0-4)
  T/C: 0.03
[2]; LLC-10, 1 mg/kg EMD521873 d7, 8, 9 plus chemoradiation
  response rate (CRs): 2/8
[2]; LLC-10, 5 mg/kg EMD521873 d7, 8, 9 plus chemoradiation
  response rate (CRs): 3/8
[2]; LLC-10, 15 mg/kg EMD521873 d7, 8, 9 plus chemoradiation
  response rate (CRs): 3/8
[2]; LLC-10, 1, 5 and 15 mg/kg EMD521873 in combination with chemoradiation vs EMD521873 alone, chemoradiation alone, vehicle
  tumor volume (FIG. 9): similarly reduced tumor volume
[2]; LLC-11, EMD521873 5 mg/kg d0, 1, 2 followed by radiation for 1 or 2 weeks, vs EMD521873 or radiation alone
  tumor growth control: an increase in tumor growth control
[2]; LLC-11, EMD521873 followed by radiation for 1 or 2 weeks
  tumor regressions and complete responses: neither tumor regressions nor complete responses were achieved
[2]; LLC-12, EMD521873 5 mg/kg days 7, 8, 9 after a single week of radiation (3.6 Gy/d; d0, 2, 4)
  tumor regressions: a majority of tumor regressions
[2]; LLC-12, EMD521873 after a single week of radiation
  complete responses: no complete responses
[2]; LLC-12, EMD521873 during the 2nd week of a 2 week or 3 week course of radiation, vs EMD521873 or radiation alone
  tumor regressions and tumor growth control: tumor regressions and improved tumor growth control
[2]; LLC-13, cisplatin plus radiation for 1 week followed by EMD521873
  complete responses: 4/10
[2]; LLC-13, cisplatin plus radiation for three weeks prior to EMD521873
  complete responses: 0/10
[2]; LLC-13, cisplatin plus radiation for two weeks or three weeks prior to EMD521873
  tumor growth control: neither gave enhancement of tumor growth control compared to chemoradiation alone
[2]; LLC-13, cisplatin plus radiation for two weeks prior to EMD521873
  complete responses: 2/10
[2]; LLC-13, cisplatin plus radiation in the first week followed by EMD521873
  tumor growth control: enhancement of tumor growth control compared to either therapy alone
[2]; LLC-14, chemoradiation (cisplatin, 3.6 Gy/d d0-4) combined with immunocytokine on d6 and d17, EMD521873 5 mg/kg i.v., NHS-muIL12 10 μg/animal s.c.
  tumor growth (FIG. 6): enhanced the efficacy of EMD521873
[2]; immunocytokine administered with chemoradiation, compared to no treatment, chemoradiation alone, immunocytokine alone
  tumor growth (FIG. 7): a decrease in tumor growth
[2]; treatment alone
  complete regressions (FIG. 8): no complete regressions occurred
  tumor growth (FIG. 8): no decrease in tumor growth was seen
[2]; [5]
  complete regressions (FIG. 8): 9/9
  tumor volume (FIG. 8): a decrease in tumor volume
